Reference: publication PMC7321402, “Insights on the Extraction Performance of Alkanediols and Glycerol: Using Juglans regia L. Leaves as a Source of Bioactive Compounds” (Molecules, 2020)
Converted amounts (≈) assume the structure as drawn. “And” between values parts separate entries of the source, which are not always exact repeats. Equal values may be shown once. Read-outs that look alike come from different tables or passages of the source.

Key:
[1] = test system: HeLa (cervical carcinoma) cell line; test: Sulforhodamine B growth inhibition assay, HeLa; format: cell-based, human
Protocol: (§1) J. regia leaf extracts (30 mg/mL) and solvents were studied regarding their inhibitory growth activity of the HeLa (cervical carcinoma) cell line and the non-tumor PLP2 cells (porcine liver primary cells) by using a sulforhodamine B assay. The extracts were diluted to obtain a stock solution of 10 mg/mL, and the concentration of the working solutions ranged from 500 to 7.8 µg/mL, while the concentration of the solvents ranged from 4% to 0.0156%. Ellipticine was used as positive control. The experimental protocol related to the cell cultures was previously described by Barros et al. and Abreu et al..

[2] = test system: non-tumor PLP2 cells (porcine liver primary cells); test: Sulforhodamine B growth inhibition assay, PLP2 (hepatotoxicity)
Protocol: as §1

[3] = as above; settings: pig, PLP2 cells (porcine liver primary cells, non-tumor)
Protocol: as §1

[4] = solvent without extract, range 4% to 0.0156%, mean ± SD

| SMILES | GI50 HeLa, Solvent [1, 4] | GI50 PLP2, Solvent [2, 4] | other results |
| --- | --- | --- | --- |
| CCO [Ethanol, ethanol] | >4 %, v/v |  | GI50 PLP2, Solvent [2]: >4 %, v/v |
| OCCCCCO [1,5-pentanediol] | 0.49 ± 0.02b %, v/v |  | GI50 PLP2, Solvent ([2]; pig): 0.59 ± 0.02b %, v/v |
| CC(O)CO (stereo not shown) [1,2-propanediol] | >4 %, v/v | >4 %, v/v |  |
| CCCCC(O)CO (stereo not shown) [1,2-hexanediol] | 0.36 ± 0.02 %, v/v and 0.36 ± 0.02c %, v/v | 0.285 ± 0.005 %, v/v and 0.285 ± 0.005c %, v/v |  |
| CC(O)CCO (stereo not shown) [1,3-butanediol] | >4 %, v/v | >4 %, v/v |  |
| OCCCO [1,3-propanediol] | >4 %, v/v | >4 %, v/v |  |
| CCCC(O)CO (stereo not shown) [1,2-pentanediol] | 0.63 ± 0.04a %, v/v | 0.89 ± 0.04a %, v/v |  |
| OCC(O)CO [Glycerol, glycerol] | >4 %, v/v |  | GI50 PLP2, Solvent ([2]; pig): >4 %, v/v |
| OCCO [1,2-ethanediol] |  |  | GI50 HeLa, Solvent [1]: >4 %, v/v; GI50 PLP2, Solvent [2]: >4 %, v/v |
| Cc1c2ccncc2c(C)c2c1[nH]c1ccccc12 [Ellipticine, reference compound] |  |  | GI50 ([1]; Homo sapiens, HeLa, positive control, mean ± SD): 1 ± 0.1 µg/mL (≈ 4.06 µM); GI50 [3]: 2.3 µg/mL (≈ 9.34 µM) |
| O [Water, water] | >4 %, v/v |  | GI50 PLP2, Solvent [2]: >4 %, v/v |
